Calls of active or inactive are those of the source. No cut-off for these calls is given here.
Assays:
[1] = target: Neuraminidase (Influenza A virus) (UniProt B4URF0); assay: Inhibition of Influenza A virus (A/California/04/2009(H1N1)) wild-type neuraminidase using MU-NANA as substrate at 1000 nM after 1 hr
Neuraminidase [2] = target: T1, Neuraminidase (Influenza A virus, UniProt B4URF0); set-up: species or system Influenza A virus (A/Anhui/1/2005(H5N1))
Neuraminidase [3] = target: T1, Neuraminidase; set-up: species or system Influenza A virus (A/California/04/2009(H1N1))
Neuraminidase [4] = target: T1, Neuraminidase; assay: Inhibition of Influenza A virus SN33 H1N1 neuraminidase using MU-NANA as substrate after 1 hr by spectrofluorometric analysis

T1 sequence (B4URF0 whole entry): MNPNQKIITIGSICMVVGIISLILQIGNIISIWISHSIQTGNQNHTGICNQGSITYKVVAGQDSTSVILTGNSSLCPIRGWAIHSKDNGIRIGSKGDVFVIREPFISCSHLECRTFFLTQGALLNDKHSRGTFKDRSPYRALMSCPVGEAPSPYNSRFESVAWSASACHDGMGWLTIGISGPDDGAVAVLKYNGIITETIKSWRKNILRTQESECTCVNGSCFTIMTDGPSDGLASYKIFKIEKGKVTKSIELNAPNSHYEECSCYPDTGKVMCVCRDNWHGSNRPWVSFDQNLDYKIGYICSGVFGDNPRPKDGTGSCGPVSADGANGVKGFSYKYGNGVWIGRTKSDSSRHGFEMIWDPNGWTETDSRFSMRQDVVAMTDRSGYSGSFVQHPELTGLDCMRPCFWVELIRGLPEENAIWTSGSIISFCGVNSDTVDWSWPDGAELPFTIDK
Sequence of Neuraminidase (Influenza A virus) (B4URF0 as listed by the source): as the sequence (B4URF0 whole entry) above

## CCC(CC)O[C@@H]1C=C(C(=O)O)C[C@H](N/C(N)=N/C(C)C)[C@H]1NC(C)=O
[1]
  inhibition: inactive

## CCC(CC)O[C@@H]1C=C(C(=O)O)C[C@H](N/C(N)=N/C)[C@H]1NC(C)=O
Neuraminidase [2]
  IC50: 3.6 nM
Neuraminidase [3]
  IC50: 1.73 nM

## CC(=O)N[C@H]1C([C@H](O)[C@H](O)CO)OC(C(=O)O)=C[C@@H]1NC(=N)NC(=O)CSc1ccc2ccccc2c1 (stereo partly specified)
Neuraminidase [4]
  IC50: 20 nM

## CCC(CC)O[C@@H]1C=C(C(=O)O)C[C@H](N/C(N)=N/O)[C@H]1NC(C)=O
Neuraminidase [2]
  IC50: 33 nM
Neuraminidase [3]
  IC50: 3.7 nM

## CCC/N=C(\N)N[C@H]1CC(C(=O)O)=C[C@@H](OC(CC)CC)[C@@H]1NC(C)=O
[1]
  inhibition: inactive

## C=CC/N=C(\N)N[C@H]1CC(C(=O)O)=C[C@@H](OC(CC)CC)[C@@H]1NC(C)=O
[1]
  inhibition: inactive

## CCC(CC)O[C@@H]1C=C(C(=O)O)C[C@H](N/C(N)=N/CC(F)(F)F)[C@H]1NC(C)=O
[1]
  inhibition: inactive

## CC/N=C(\N)N[C@H]1CC(C(=O)O)=C[C@@H](OC(CC)CC)[C@@H]1NC(C)=O
[1]
  inhibition: inactive

## CCC(CC)O[C@@H]1C=C(C(=O)O)C[C@H](N/C(N)=N/C2CC2)[C@H]1NC(C)=O
[1]
  inhibition: inactive

— ChEMBL document CHEMBL3232948 (J Med Chem, 2014)
